Assay results reported in patent publication US8933228B2, “Respiratory formulations and compounds for use therein” (Respivert, Ltd., priority 2010, dated 2015).

Columns and labels:
[1] = system: IL-8 release in d-U937 cells; experiment: LPS-induced IL-8 release in d-U937 cells; type: cell-based; details: Homo sapiens, dU937; d-U937 cells, LPS 0.1 μg/mL, 4 hr; read-out: d-U937 (LPS) IL-8 IC50
Description: (§1) U937 cells, a human monocytic cell line, were differentiated to macrophage-type cells by incubation with phorbol myristate acetate (PMA; 100 ng/mL) for 48 to 72 hr, whereupon the cells become adherent. […] Coli: O111:B4, Sigma) for 4 hr. The supernatant was collected for determination of TNFα and IL-8 concentrations by sandwich ELISA (Duo-set, R&D systems). […] The relative 50% effective concentration (REC50) was determined from the resultant concentration-response curve. The inhibition of IL-8 production was calculated at each concentration of test compound by comparison with vehicle control.

[2] = system: TNFα release in THP-1 cells; experiment: LPS-induced TNFα release in THP-1 cells; type: cell-based; details: Homo sapiens; THP-1 cells, LPS 3 μg/mL, 4 hr; read-out: THP1 (LPS) TNFα IC50
Description: The inhibition of TNFα production was calculated at each concentration by comparison with vehicle control.

[3] = system: Differentiated U937 cells; experiment: MTT assay: cell viability; type: cell-based, human; details: 1 μg/ml; for d-U937 MTT Assay 4 h: 5% FCS; for d-U937 MTT Assay 24 h: 10% FCS
Description: Differentiated U937 cells were pre-incubated with each test compound under two protocols: the first for 4 hr in 5% FCS and the second in 10% FCS for 24 h. The supernatant was replaced with 200 μL of new media and 10 μL of MTT stock solution (5 mg/mL) was added to each well. After incubation for 1 hr the media were removed, 200 μL of DMSO was added to each well and the plates were shaken lightly for 1 hr prior to reading the absorbance at 550 nm. The percentage loss of cell viability was calculated for each well relative to vehicle (0.5% DMSO) treatment. Consequently an apparent increase in cell viability for drug treatment relative to vehicle is tabulated as a negative percentage.

HCK enzyme = HCK enzyme (Homo sapiens (Human), UniProt P08631); experiment: HCK enzyme inhibition assay (FRET, Z'-LYTE); type: biochemical; details: read-out: Enzyme Profile: IC50 Values HCK
p38 MAPK alpha (MAPK14) = p38 MAPK alpha (MAPK14) (Homo sapiens (Human), UniProt Q16539); experiment: Enzyme inhibition assay (FRET, Z-LYTE), p38 MAPK alpha via MAPKAP-K2 activation; type: biochemical; details: read-out: Enzyme Profile: IC50 Values p38α
Description: (§2) The enzyme inhibitory activity of test compounds was determined by fluorescence resonance energy transfer (FRET) using synthetic peptides labelled with both donor and acceptor fluorophores (Z-LYTE, Invitrogen). Recombinant, phosphorylated p38 MAPK γ (MAPK12:Millipore) was diluted in HEPES buffer, mixed with compound at the desired final concentrations and incubated for 2 hr at RT. The FRET peptide (2 μM) and ATP (100 μM) were next added to the enzyme/compound mixture and incubated for 1 hr. Development reagent (protease) was added for 1 hr prior to detection in a fluorescence microplate reader. The site-specific protease only cleaves non-phosphorylated peptide and eliminates the FRET signal. Phosphorylation levels of each reaction were calculated using the ratio of coumarin emission (donor) over fluorescein emission (acceptor) with high ratios indicating high phosphorylation levels and low ratios indicating low phosphorylation levels.
For p38 MAPK alpha (MAPK14: Invitrogen), enzyme activity was evaluated indirectly by determining activation/phosphorylation of the down-stream molecule, MAPKAP-K2. The p38 MAPK a protein was mixed with compound for 2 hr at RT. […] Development reagent was then added and the mixture incubated for 1 hr before detection by fluorescence completed the assay protocol.
The enzyme inhibitory activity of compound was determined by fluorescence resonance energy transfer (FRET) using synthetic peptides labelled with both donor and acceptor fluorophores (Z′-LYTE, Invitrogen).

HRV16 = experiment: Rhinovirus-titre assay; type: cell-based, human rhinovirus; details: HRV16; for inhibition at 0.04 µg/mL: Human rhinovirus sp., cell not marked b, test compounds 0.04 μg/mL per method (footnote b, 0.2 μg/mL), read-out: HRV titre (inhibitory %): % inhibition observed vs. HRV16 infection control
Description: MRC5 cells (human lung fibroblast, ATCC) were infected with 1 MOI (multiplicity of infection of 1.0) of HRV16 and incubated for 1 hr at 33° C. with gentle shaking to stimulate adsorption. The cells were then washed with PBS, fresh media was added and the cells were incubated for a further 96 hr. The supernatant was collected and 10-fold serial dilutions of virus containing supernatant were prepared. All titrations were performed by infecting confluent Hela cell monolayers with serially diluted supernatant (10^−1-10^−5) and assessing the cytopathic effect by visual inspection 4 days after infection. The amount of virus required to infect 50% of Hela cells was calculated in each treatment as TCID50. Test compounds (0.04 μg/mL) were added 2 hr before HRV infection and 1 hr after infection when non-infected HRV was washed out. The anti-HRV activity of each test compound was determined as the difference of the log TCID50 of HRV16 in the presence of the compound with the log TCID50 of HRV16 in the absence of compound. […]

[4] = system: TNFα release in d-U937 cells; experiment: LPS-induced TNFα release in d-U937 cells; type: cell-based; details: Homo sapiens, dU937, LPS 0.1 μg/mL, 4 hr, relative to 10 μg/mL BIRB796, read-out: d-U937 (LPS) TNFα REC50
Description: as §1

[5] = system: ICAM-1 expression in BEAS2B cells; experiment: Poly I:C-induced ICAM-1 induction in BEAS2B cells; type: cell-based; details: Homo sapiens, BEAS-2B; BEAS2B cells, poly I:C 1 μg/mL, 18 hr; read-out: BEAS2B (polyIC) ICAM1 IC50
Description: Poly I:C (1 μg/mL) (Invivogene Ltd., San Diego, Calif.) was transfected into BEAS2B cells (human bronchial epithelial cells, ATCC) with Oligofectamine (Invitrogen, Carlsbad, Calif.). Cells were pre-incubated with final concentrations of test compounds for 2 hr and the level of ICAM1 expression on the cell surface was determined by cell-based ELISA. […] The cells were washed with PBS-Tween and incubated with the secondary antibody (HRP-conjugated anti-rabbit IgG, Dako Ltd., Glostrup, Denmark).

cSrc enzyme = cSrc enzyme (Homo sapiens (Human), UniProt P12931); experiment: c-SRC enzyme inhibition assay (FRET, Z'-LYTE); type: biochemical; details: read-out: Enzyme Profile: IC50 Values cSrc
p38 MAPK γ (MAPK12) = p38 MAPK γ (MAPK12) (Homo sapiens (Human), UniProt P53778); experiment: Enzyme inhibition assay (FRET, Z-LYTE), p38 MAPK gamma; type: biochemical; details: read-out: Enzyme Profile: IC50 Values p38γ
Description: as §2

Compound | IC50 [1] [nM] | IC50 [2] [nM] | IC50 (HCK enzyme) [nM] | IC50 (p38 MAPK alpha (MAPK14)) [nM] | EC50 [4] [nM] | IC50 (cSrc enzyme) [nM] | IC50 (p38 MAPK γ (MAPK12)) [nM] | d-U937 MTT Assay 4 h [3] | d-U937 MTT Assay 24 h [3] | inhibition at 0.04 µg/mL (HRV16) [%] | IC50 [5] [nM] | NBEC (HRV) HRV titre Relative anti-viral activity (HRV16; at 0.04 μg/mL vs. pleconaril at 0.1 μg/mL)
CC(C)(C)c1cc(NC(=O)Nc2ccc(Oc3ccnc4[nH]c(=O)cnc34)c3ccccc23)n(-c2ccccc2)n1 [Example 5, 1-(3-(tert-butyl)-1-phenyl-1H-pyrazol-5-yl)-3-(4-((3-oxo-3,4-dihydropyrido[2,3-b]pyrazin-8-yl)oxy)naphthalen-1-yl) urea] | 4.1 | 13 | 3 | 2 | 6.2 | 5 | 43 | − (− and + indicate the result is below and above the no significant effect threshold, respectively (<30% inhibition at a concentration of 1 μg/ml)) | − (− and + indicate the result is below and above the no significant effect threshold, respectively (<30% inhibition at a concentration of 1 μg/ml)) | 36 | 6.6 | –
Cc1nc2c(Oc3ccc(NC(=O)Nc4cc(C(C)(C)C)nn4-c4ccccc4)c4ccccc34)ccnc2[nH]c1=O [Example 7, 1-(3-(tert-butyl)-1-phenyl-1H-pyrazol-5-yl)-3-(4-((2-methyl-3-oxo-3,4-dihydropyrido[2,3-b]pyrazin-8-yl)oxy)naphthalen-1-yl)urea] | 4.2 | 7 | 3 | 3 | 1.7 | 7 | 100 | − (− and + indicate the result is below and above the no significant effect threshold, respectively (<30% inhibition at a concentration of 1 μg/ml)) | − (− and + indicate the result is below and above the no significant effect threshold, respectively (<30% inhibition at a concentration of 1 μg/ml)) | 60 | 3 | –
Cc1ccc(-n2nc(C(C)(C)C)cc2NC(=O)Nc2ccc(Oc3ccnc4[nH]c(=O)c(C)nc34)c3ccccc23)cc1 [Example 8, 1-(3-(tert-butyl)-1-(p-tolyl)-1H-pyrazol-5-yl)-3-(4-((2-methyl-3-oxo-3,4-dihydropyrido[2,3-b]pyrazin-8-yl)oxy)naphthalen-1-yl)urea] | 1.7 | 2.5 | 5 | 7 | 0.3 | 7 | 99 | − (− and + indicate the result is below and above the no significant effect threshold, respectively (<30% inhibition at a concentration of 1 μg/ml)) | − (− and + indicate the result is below and above the no significant effect threshold, respectively (<30% inhibition at a concentration of 1 μg/ml)) | 91 | 0.6 | –
COc1ccc(-n2nc(C(C)(C)C)cc2NC(=O)Nc2ccc(Oc3ccnc4[nH]c(=O)[nH]c34)c3ccccc23)cc1 [Example 9] | 27 | 1.6 | < 2 | 21 | 3.1 | 7 | 119 | − (− and + indicate the result is below and above the no significant effect threshold, respectively (<30% inhibition at a concentration of 1 μg/ml)) | − (− and + indicate the result is below and above the no significant effect threshold, respectively (<30% inhibition at a concentration of 1 μg/ml)) | 36 | 24 | 3.2

Molecules with a lower IC50 [1], results first:

IC50 [1] [nM] | IC50 [2] [nM] | IC50 (HCK enzyme) [nM] | IC50 (p38 MAPK alpha (MAPK14)) [nM] | EC50 [4] [nM] | IC50 (cSrc enzyme) [nM] | IC50 (p38 MAPK γ (MAPK12)) [nM] | Compound | d-U937 MTT Assay 4 h [3] | d-U937 MTT Assay 24 h [3] | inhibition at 0.04 µg/mL (HRV16) [%] | IC50 [5] [nM] | NBEC (HRV) HRV titre Relative anti-viral activity (HRV16; at 0.04 μg/mL vs. pleconaril at 0.1 μg/mL)
1 | 0.6 | 3 | 6 | 1.3 | 7 | 45 | COc1ccc(-n2nc(C(C)(C)C)cc2NC(=O)Nc2ccc(Oc3ccnc4[nH]c(=O)n(C)c34)c3ccccc23)cc1 [Example 10] | − (− and + indicate the result is below and above the no significant effect threshold, respectively (<30% inhibition at a concentration of 1 μg/ml)) | − (− and + indicate the result is below and above the no significant effect threshold, respectively (<30% inhibition at a concentration of 1 μg/ml)) | 91 | 6 | –
1.6 | 4 | 5 | 2 | 0.7 | 9 | 348 | CCn1c(=O)[nH]c2nccc(Oc3ccc(NC(=O)Nc4cc(C(C)(C)C)nn4-c4ccc(OC)cc4)c4ccccc34)c21 [Example 11] | − (− and + indicate the result is below and above the no significant effect threshold, respectively (<30% inhibition at a concentration of 1 μg/ml)) | − (− and + indicate the result is below and above the no significant effect threshold, respectively (<30% inhibition at a concentration of 1 μg/ml)) | 60 | 3.6 | –
1.1 | 1.3 | 8 | 11 | 0.5 | 12 | 495 | COc1ccc(-n2nc(C(C)(C)C)cc2NC(=O)Nc2ccc(Oc3ccnc4[nH]c(=O)n(C(C)C)c34)c3ccccc23)cc1 [Example 12] | − (− and + indicate the result is below and above the no significant effect threshold, respectively (<30% inhibition at a concentration of 1 μg/ml)) | − (− and + indicate the result is below and above the no significant effect threshold, respectively (<30% inhibition at a concentration of 1 μg/ml)) | 94 | 1.9 | –
